This note sets out measurements from US20230226096A1 (Orna Therapeutics, Inc., priority 2020, published 2023).

Series [1] can be described thus: LNP particle size (Z-average) and polydispersity index by dynamic light scattering. It is filed as physicochemical. The note with it: Table 36b, LNPs with circular RNA. On the procedure:
The microfluidic chamber is cleaned with ethanol and neMYSIS syringe pumps are prepared by loading a syringe with the RNA solution and another syringe with the ethanolic lipid. Both syringes are loaded and under the control of neMESYS software. The solutions are then applied to the mixing chip at an aqueous to organic phase ratio of 2 and a total flow rate of 22 ml/min (14.67 ml/min for RNA and 7.33 ml/min for the lipid solution. Both pumps are started synchronously. The mixer solution that flowed from the microfluidic chip is collected in 4×1 ml fractions with the first fraction being discarded as waste. The remaining solution containing the circRNA-transfer vehicles is exchanged by using G-25 mini desalting columns to 10 mM Tris-HCl, 1 mM EDTA, at pH 7.5, as described above. Following buffer exchange, the materials are characterized for size, and RNA entrapment through DLS analysis and Ribogreen assays, respectively.
Lipid Nanoparticles (LNPs) were formed using a Precision Nanosystems Ignite instrument with a ‘NextGen’ mixing chamber. […] A 3:1 aqueous to ethanol mixing ratio was used. The formulated LNP then were dialyzed in 1 L of water and exchanged 2 times over 18 hours. Dialyzed LNPs were filtered using 0.2 μm filter. Prior to in vivo dosing, LNPs were diluted in PBS. LNP sizes were determined by dynamic light scattering. A cuvette with 1 mL of 20 μg/mL LNPs in PBS (pH 7.4) was measured for Z-average using the Malvern Panalytical Zetasizer Pro. The Z-average and polydispersity index were recorded.
Lipid Nanoparticles (LNPs) were formed using a Precision Nanosystems Ignite instrument with a ‘NextGen’ mixing chamber. […] A 3:1 aqueous to ethanol mixing ratio was used. The formulated LNPs were then dialyzed in 1 L of water and exchanged 2 times over 18 hours. Dialyzed LNPs were filtered using 0.2 μm filter. Prior to in vivo dosing, LNPs were diluted in PBS. LNP sizes were determined by dynamic light scattering. A cuvette with 1 mL of 20 μg/mL LNPs in PBS (pH 7.4) was measured for Z-average using the Malvern Panalytical Zetasizer Pro. The Z-average and polydispersity index were recorded.
Lipid Nanoparticles (LNPs) were formed using a Precision Nanosystems Ignite instrument with a ‘NextGen’ mixing chamber. […] A 3:1 aqueous to ethanol mixing ratio was used. The formulated LNPs were then dialyzed in 1 L of 1×PBS and exchanged 2 times over 18 hours. Dialyzed LNPs were filtered using 0.2 μm filter. Prior to in vivo dosing, LNPs were diluted in PBS. LNP sizes were determined by dynamic light scattering. A cuvette with 1 mL of 20 μg/mL LNPs in PBS (pH 7.4) was measured for Z-average using the Malvern Panalytical Zetasizer Pro. The Z-average and polydispersity index were recorded.

Series [2] is described as follows: RNA encapsulation / entrapment by Ribogreen assay. The format is physicochemical. The note with it: Table 36b, LNPs with circular RNA. On the procedure: A QUANT-IT™ RIBOGREEN® RNA assay (Invitrogen Corporation Carlsbad, Calif.) can be used to evaluate the encapsulation of circRNA by the nanoparticle composition. The samples are diluted to a concentration of approximately 5 μg/mL or 1 μg/mL in a TE buffer solution (10 mM Tris-HCl, 1 mM EDTA, pH 7.5). 50 μL of the diluted samples are transferred to a polystyrene 96 well plate and either 50 μL of TE buffer or 50 μL of a 2-4% Triton X-100 solution is added to the wells. The plate is incubated at a temperature of 37° C. for 15 minutes. The RIBOGREEN® reagent is diluted 1:100 or 1:200 in TE buffer, and 100 μL of this solution is added to each well. The fluorescence intensity can be measured using a fluorescence plate reader (Wallac Victor 1420 Multilabel Counter; Perkin Elmer, Waltham, Mass.) at an excitation wavelength of, for example, about 480 nm and an emission wavelength of, for example, about 520 nm. The fluorescence values of the reagent blank are subtracted from that of each of the samples and the percentage of free circRNA is determined by dividing the fluorescence intensity of the intact sample (without addition of Triton X-100) by the fluorescence value of the disrupted sample (caused by the addition of Triton X-100). C.
For transfer vehicle compositions including RNA, a QUANT-IT™ RIBOGREEN® RNA assay (Invitrogen Corporation Carlsbad, Calif.) can be used to evaluate the encapsulation of RNA by the transfer vehicle composition. […] The fluorescence intensity can be measured using a fluorescence plate reader (Wallac Victor 1420 Multilabel Counter; Perkin Elmer, Waltham, Mass.) at an excitation wavelength of, for example, about 480 nm and an emission wavelength of, for example, about 520 nm. The fluorescence values of the reagent blank are subtracted from that of each of the samples and the percentage of free RNA is determined by dividing the fluorescence intensity of the intact sample (without addition of Triton X-100) by the fluorescence value of the disrupted sample (caused by the addition of Triton X-100). […]

In series [3] the test system is 1C1C7 cells. Nature of the series: Modified IRES, stop codon cassettes, 5′ UTR variants: GLuc luminescence in 1C1C7 cells. The format is cell-based. The note with it: 24 and 48 hours after transfection. An excerpt:
This example describes modifications of CK-739, AP-748, and PV-743 IRES sequences, including mutations alternative translation initiation sites.
This example describes modifications of circular RNAs by introducing stop codon or cassette variants. […] 1C1C7 cells were transfected with the circular RNAs.
This example describes modifications of circular RNAs by inserting 5′ UTR variants. […] 1C1C7 cells were transfected with the circular RNAs.

For series [4], the system named is 1C1C7 cells. Nature of the series: GLuc luminescence and functional stability by IRES in 1C1C7 cells. The note with it: 100 ng circularization reaction per 20,000 cells.
The test system of a further series is HEK293 cells. The series is described as follows: GLuc luminescence by IRES in HEK293 cells. The note with it: 100 ng circularization reaction per 20,000 cells.

With `CCCCCCCCCCCCCCSCCOC(=O)CCN(CCCn1ccnc1C)CCC(=O)OCCSCCCCCCCCCCCCCC` [22-S14, bis(2-(tetradecylthio)ethyl) 3,3′-((3-(2-methyl-1H-imidazol-1-yl)propyl)azanediyl)dipropionate], in series [1], the PDI was 0.05 and the “Z-Average(nm)” value is 64 nm. In series [2], the “RNA Entrapment(%)” value amounted to 97%.
As to `CCCCCCCCCCCCCCSCCOC(=O)CCN(CCCn1ccnc1)CCC(=O)OCCSCCCCCCCCCCCCCC` [93-S14, bis(2-(tetradecylthio)ethyl) 3,3′-((3-(1H-imidazol-1-yl)propyl)azanediyl)dipropionate], in series [1], the PDI was 0.04 and the “Z-Average(nm)” value is 74 nm. In addition, the “RNA Entrapment(%)” value in series [2] is listed as 95%.
As to `CCCCCCCCC(CCCCCC)C(=O)OCCCCCCN(CCCCCCOC(=O)C(CCCCCC)CCCCCCCC)CCCn1ccnc1` (stereo not shown) [Lipid 26, Table 10a], in series [1], the PDI worked out at 0.04 and the “Z-Average(nm)” value stood at 84 nm. Besides, in series [2], the “RNA Entrapment(%)” value was 96%.
“UTR2: 5′ UTR variant: canonical Kozak sequence with "a 36-nucleotide unstructured/low GC spacer sequence" added (DNA AATAAGAGAGAAAAGAAGAGTAAGAAGAAATATAAGAGCCACC; expressed or natural sequence)”: the “translation / expression (luminescence in supernatant)” value in the series on 1C1C7 cells [3] is recorded as “more effective”.
Take “UTR3: 5′ UTR variant: "a higher-GC/structured spacer with a kozak sequence" (DNA CGAACTAGTATTCTTCTGGTCCCCACAGACTCAGAGAGAACCCGCCACC; expressed or natural sequence)”: the “translation / expression (luminescence in supernatant)” value in the series on 1C1C7 cells [3] was “did not show the same benefit”.

B1: Salivirus A SZ-1 (nucleic acid)
DNA: TCTGTCCTCACCCCATCTTCCCTTCTTTCCTGCACCGTTACGCTTACTCGCATGTGCATTGAGTGGTGCACGTGCTTGAACAAACAGCTACACTCACATGGGGGCGGGTTTTCCCGCCCTGCGGCCTCTCGCGAGGCCCACCCCTCCCCTTCCTCCCATAACTACAGTGCTTTGGTAGGTAAGCATCCTGATCCCCCGCGGAAGCTGCTCACGTGGCAACTGTGGGGACCCAGACAGGTTATCAAAGGCACCCGGTCTTTCCGCCTTCAGGAGTATCCCTGCTAGTGAATTCTAGTAGGGCTCTGCTTGGTGCCAACCTCCCCCAAATGCGCGCTGCGGGAGTGCTCTTCCCCAACTCACCCTAGTATCCTCTCATGTGTGTGCTTGGTCAGCATATCTGAGACGATGTTCCGCTGTCCCAGACCAGTCCAGTAATGGACGGGCCAGTGTGCGTAGTCGTCTTCCGGCTTGTCCGGCGCATGTTTGGTGAACCGGTGGGGTAAGGTTGGTGTGCCCAACGCCCGTACTTTGGTGATACCTCAAGACCACCCAGGAATGCCAGGGAGGTACCCCGCTTCACAGCGGGATCTGACCCTGGGCTAATTGTCTACGGTGGTTCTTCTTGCTTCCACTTCTTTCTACTGTTCATG
Take B1: the “luminescence at 24 hours” value in the series with 1C1C7 cells [4] is “high luminescence”.

B2: Crohivirus B IRES: "Crohivirus B (CrVB) IRES", one of the selected IRES sequences, SEQ ID NOs: 348-389 (nucleic acid)
DNA: GTATAAGAGACAGGTGTTTGCCTTGTCTTCGGACTGGCATCTTGGGACCAACCCCCCTTTTCCCCAGCCATGGGTTAAATGGCAATAAAGGACGTAACAACTTTGTAACCATTAAGCTTTGTAATTTTGTAACCACTAAGCTTTGTGCACATAATGTAACCATCAAGCTTGTTAGTCCCAGCAGGAGGTTTGCATGCTTGTAGCCGAAATGGGGCTCGACCCCCCATAGTAGGATACTTGATTTTGCATTCCATTGTGGACCTGCAAACTCTACACATAGAGGCTTTGTCTTGCATCTAAACACCTGAGTACAGTGTGTACCTAGACCCTATAGTACGGGAGGACCGTTTGTTTCCTCAATAACCCTACATAATAGGCTAGGTGGGCATGCCCAATTTGCAAGATCCCAGACTGGGGGTCGGTCTGGGCAGGGTTAGATCCCTGTTAGCTACTGCCTGATAGGGTGGTGCTCAACCATGTGTAGTTTAAATTGAGCTGTTCATATACC
modifications: Crohivirus B
On to B2, for which the “luminescence at 24 hours” value with HEK293 cells is “highest luminescence”.
